The numbers were not newly measured in US9452178B1, “Acne formulations, treatments, and pressure sensitive patches for delivery of acne formulations” (SatisPharma, LLC, priority 2014, dated 2016), which cites them from elsewhere.

Each structure is given as a SMILES string.

The conditions of this series: complex with polyvinylpyrrolidone; publication by Rhein et al.

For the compound `O=C(O)c1ccccc1O` [salicylic acid], the “permeation through the epidermis” value is “prevents its permeation through the epidermis”.
